Data on two sequences can be found in paper PMC10204553, “Identification of the Binding Epitope of an Anti-Mouse CCR6 Monoclonal Antibody (C6Mab-13) Using 1× Alanine Scanning” (Antibodies, 2023).

The test system of test [1] is C6Mab-13. Nature of the test: ELISA of C6Mab-13 with immobilized alanine-substituted mCCR6 peptides. Type of test: binding, rat. The settings on record: for binding of C6Mab-13 in ELISA (in words): ELISA with alanine-substituted peptides, Figure 1A; for C6Mab-13 Reactivity: ELISA, peptide immobilized at 10 µg/mL, 30 min 37 °C, C6Mab-13 10 µg/mL, OD at 655 nm. Here is the method:
Synthesized mCCR6 peptides were immobilized on Nunc Maxisorp 96-well immunoplates (Thermo Fisher Scientific Inc., Waltham, MA, USA) at 10 µg/mL for 30 min at 37 °C. After being washed with phosphate-buffered saline (PBS) containing 0.05% Tween20 (PBST; Nacalai Tesque, Inc., Kyoto, Japan), the wells were blocked with 1% bovine serum albumin (BSA)-containing PBST for 30 min at 37 °C. The plates were incubated with 10 µg/mL of C6Mab-13 for 30 min at 37 °C followed by peroxidase-conjugated anti-rat immunoglobulins (1:20,000 diluted; Sigma-Aldrich Corp.) for 30 min at 37 °C. Enzymatic reactions were conducted at room temperature using the ELISA POD Substrate TMB Kit (Nacalai Tesque, Inc.). Optical density was measured at 655 nm using an iMark microplate reader (Bio-Rad Laboratories, Inc., Berkeley, CA, USA).
Figure 1 Determination of the C6Mab-13 epitope by ELISA using alanine-substituted peptides of mCCR6. (A) Synthesized peptides of mCCR6 (10 µg/mL) were immobilized on immunoplates for 30 min at 37 °C. The plates were incubated with 10 µg/mL of C6Mab-13, followed by treatment with peroxidase-conjugated anti-rat immunoglobulins. Optical density was measured at 655 nm (OD655) using a microplate reader. (B) The schematic illustration of mCCR6 and the C6Mab-13 epitope. The C6Mab-13 epitope of mCCR6 comprises Asp11 from ELISA experiments.

Test [2] deals with C6Mab-13. Nature of the test: Surface plasmon resonance (Biacore X100), C6Mab-13 immobilized on CM5 chip. The format is binding, rat. The settings on record: KD could not be calculated. On the procedure:
The dissociation constants (KD) between C6Mab-13 and the epitope region peptides were measured using SPR. C6Mab-13 was immobilized on the CM5 sensor chip according to the manufacturer’s protocol (Cytiva, Marlborough, MA, USA). In summary, C6Mab-13 was diluted to 10 μg/mL by an acetate buffer (pH 4.0; Cytiva) and immobilized using an amine-coupling reaction. The surface of flow cell 2 of the CM5 sensor chip was treated with 1-ethyl-3-(3-dimethylaminopropyl)-carbodiimide and N-hydroxysuccinimide (NHS), followed by an injection of C6Mab-13. The unreacted NHS-ester was blocked with ethanolamine after C6Mab-13 immobilization. The KD between C6Mab-13 and mCCR6 peptides (50, 25, 12.5, 6.25, and 3.13 µM) were measured using Biacore X100 (Cytiva) at 25 °C. The buffer was filtrated with PBS containing 0.05% (v/v) Tween 20 and 0.24% (v/v) dimethyl sulfoxide (FUJIFILM Wako Pure Chemical Corporation, Osaka, Japan). The single-cycle kinetics method was used to measure the binding signals. The data were analyzed using 1:1 binding kinetics to determine the association rate constant (ka), dissociation rate constant (kd), and KD using BIAevaluation software (Cytiva).

On to “MNSTESYFATDDYDNTEYYS [G9A, 1× alanine-substituted mCCR6 1–20 peptide]”, for which, in the test on C6Mab-13 [1], the “binding of C6Mab-13 in ELISA (in words)” value was “bound” and the “C6Mab-13 Reactivity” value was “+++ (OD655 ≧ 0.3)”. Moreover, the “binding to C6Mab-13 in SPR analysis (in words)” value in the test on C6Mab-13 [2] was “lack of binding”.
For “MNSTESYFGTADYDNTEYYS [D11A, 1× alanine-substituted mCCR6 1–20 peptide]”, in the test on C6Mab-13 [1], the “binding of C6Mab-13 in ELISA (in words)” value is on record as “did not react” and the “C6Mab-13 Reactivity” value is “- (OD655 < 0.1)”. The “binding to C6Mab-13 in SPR analysis (in words)” value in the test with C6Mab-13 [2] is recorded as “lack of binding”.
